Here are results for six compounds from patent US7129226B2, “Mimetic insect allatostatin analogs for insect control” (The United States of America as represented by the …, priority 1998, dated 2006).

Read-outs that look alike come from different tables or passages of the source. Ends that are not written are not given here. Peptide text beside a SMILES is read from it. carboranyl propanoic acid = 2-o-carboranylpropanoic acid

One series concerns brain peptidases. Kind of series: in vitro. The class given is in vitro ADME, Diploptera punctata. The conditions noted are these: female, tissue homogenate; for half-life at 6 μM: Diploptera punctata. The procedure: (§1) Day 5 mated female D. punctata were anaesthetized on ice before dissection. Following dissection, tissues were stored in saline (0.9% NaCl pH 7.0–7.2 or cockroach saline; […] at pH 7.2–7.4) on ice. Tissues were cleaned of fat body and trachea and guts were cleaned. Midgut peritrophic membrane was removed, midguts cut open, the guts gently pulled through forceps and then washed 3×. Tissues were stored at −70° C. until sufficient material was collected.
(§2) Tissues were pooled and homogenized in saline on ice in microcentrifuge tubes (2.5 ml) for 2 min with an Omni hand held homogenizer. Homogenates were centrifuged at 1000 g for ten min at 4° C. to remove cellular debris. The pellet was discarded. Supernatant was subsequently centrifuged at 30,000 g for 30 min. Pellet (crude membrane preparation) was washed three times in homogenization buffer and resuspended in saline using the Omni homogenizer.
(§3) Crude membrane preparation or hemolymph was aliquoted into 1.5 ml microcentrifuge tubes for in vitro assay. Dip-AST5 (6 μM) or analog was added to each assay tube from a 1 mM stock solution. Total incubation volume was 500 μl. Tubes were placed on a shaker at room temp for the duration of the incubation time. Incubations were terminated by the addition of 200 μl 30% aqueous TFA. Samples were centrifuged at 10,000 g and the supernatant was applied to a C18 solid phase extraction column. None of the potential, synthetic Dip-AST5 metabolites are lost (unpublished data). The 17–40% acetonitrile fraction was concentrated with a Speed-Vac apparatus and held at −70° C. until HPLC analysis. Samples is were diluted in 0.5 ml 0.1% aqueous TFA, filtered through 0.2 μm micro-spin filters and injected onto the HPLC column. Separation of allatostatins and their catabolites, or analogs and their catabolites, was performed using reversed-phase HPLC (see HPLC methods). When available, retention times of synthetic metabolites were used as a reference to identify endogenous metabolites. Dip-AST5 fragments were synthesized by the Institute for Biosciences and Technology, Dept. of Entomology, Texas A & M University. Dip-ASTs were synthesized by the Core Facility of Insect Biotech Canada (Department of Biochemistry, Queen's University) or obtained from Sigma Chemical Co., St. Louis, Mo. 63178 USA. The identity of fragments resulting from peptidase degradation was also confirmed by FAB mass spectrometry by adding samples in a glycerol medium (1.5 μl) onto a copper probe, followed by bombardment with 8 kV Xe atoms on a Kratos MS-50 mass spectrometer. (Kratos, Manchester, UK).
(§4) Degradation experiments were analyzed by RP-HPLC using a 220×4.6 mm Brownlee Phenyl column (5 μm) on a Spectra-Physics chromatography system with a Spectra-Physics Chromjet integrator and a Spectra-Physics 8490 detector. Following a 5 min wash with 1.5% acetonitrile in 0.1 aqueous TFA, a linear gradient of acetonitrile (15–37.5% in 50 min; 37.5–65% in 5 min) at a flow rate of 0.5 ml/min was used to elute peptides and analogs. Fractions (0.5 ml) were collected each minute during the gradient run.

Series [1] is described as follows: in vitro. It counts as in vitro ADME, Diploptera punctata. The procedure:
as §1, §2, §3, §4

Series [2] has as its system corpora allata of the cockroach Diploptera punctata (JH biosynthesis). Nature of the series: In vitro radiochemical assay of JH biosynthesis/release by corpora allata. It counts as cell-based. As to conditions: for bioactivity (inhibition of JH biosynthesis): result in words. The procedure: Rates of JH release were determined by the in vitro radiochemical method of Feyereisen and Tobe (Anal. Biochem., 111:372–375, 1981) and as modified by Tobe and Clarke (Tobe and Clarke, Insect Biochem., 15:175–179, 1985). The incorporation of L[^14C—S-methyl]-methionine (50 μM, specific radioactivity 1.48–2.03 GBq/mmol from New England Nuclear or Amersham) into JH III at its penultimate step of biosynthesis by CA incubated in 50 μl TC 199 (GIBCO, 1.3 mM Ca^2+, 2% Ficoll, methionine-free) was used to quantify JH release. Animals were anaesthetized on ice prior to dissection. Corpora allata were dissected directly into non-radioactive medium (only animals with oviposited basal oocytes were used for assay). Samples were dried with nitrogen and resuspended in 10 μl 1N HCl. Radioactive medium was added and neutralized with 10 μl NaOH. Individual CA were transferred from non-radioactive medium to radioactive medium and were incubated for 3 h. The amount of inhibition was expressed as the percent reduction from the untreated rate: [1-(treated rate/untreated rate))] ×100%. Each value represents replicate incubations of a minimum of 8 tests.
D. punctata females mate almost immediately following emergence. Therefore, newly emerged, mated females were transferred each day from the stock culture to an incubator and kept at 27±1° C. The relative humidity was approximately 50% with a 12 hour light:dark cycle. Insects were reared on Purina Lab Chow and water. Mating was confirmed by the presence of a spermatophore. Basal oocyte length was also measured (day 5=1.44–1.68 mm). Only day 5 mated females were utilized for the degradation studies. Day 7 mated females (only with oviposited basal oocytes) were the source of corpora allata for analysis of JH biosynthesis.
Radiochemical assays were conducted as described in Example 1.

For another series, the system named is hemolymph peptidases. Nature of the series: in vitro. The class given is in vitro ADME, Diploptera punctata. The conditions noted are these: female, Diploptera punctata. The method, then: as §1
(§5) Hemolymph was collected following the method of King and Tobe (Insect Biochem., 18:793–805, 1988). Hemolymph was diluted 100× with saline.
as §3
(§6) Degradation experiments were analyzed by RP-HPLC using a 220×4.6 mm Brownlee Phenyl column (5 μm) on a Spectra-Physics chromatography system with a Spectra-Physics Chromjet integrator and a Spectra-Physics 8490 detector. Following a 5 min wash with 1.5% acetonitrile in 0.1 aqueous TFA, a linear gradient of acetonitrile (15–37.5% in 50 min; 37.5–65% in 5 min) at a flow rate of 0.5 ml/min was used to elute peptides and analogs. […]

Series [3] is described as follows: in vitro. The class given is in vitro ADME, Diploptera punctata. The procedure: as §1, §5, §3, §6
This is another data set of the same source.

A further series has as its system midgut peptidases. Kind of series: in vitro. It counts as in vitro ADME, Diploptera punctata. The conditions noted are these: female, tissue homogenate. The method, then:
as §1, §2, §3, §4

Series [4] is described as follows: Penetration of analog through isolated cockroach cuticle (RPLC of well contents). The class given is in vitro ADME, American cockroach. The procedure:
Adults of the American cockroach were obtained from. colonies at our facility (CMAVE). Animals, anesthetized by submersion in H2O for 30 min, were pinned ventral side up in a wax dissecting dish flooded with water. Lateral incisions along the margins of the abdominal sternites were made between segments 1–7. The epidermal layers including the cuticle and epidermal cells were lifted up and associated tissue was cleared using forceps prior to removal. The epidermal tissue was placed cell side up on a microscope slide and the cells were scraped from the cuticle using a glass cover slip. To further clean the cuticle of cellular debris the tissue was floated, cell side down, in a beaker containing H2O and subjected to sonication in a water bath at 30° C. for 30 min. The cuticle strips were then washed 3× in clean water. Pieces of cuticle, ca. 0.4 cm^2, composed of individual sternites without associated intersegmental membranes were then dissected away from remaining cuticle.
Incubation of cuticle was accomplished using the wells of ELISA plates (Corning, 96 well Easy Wash). […]
Dried samples were reconstituted in 35% acetonitrile (MeCN) (Burdick and Jackson) prior to analysis. […] Data acquired from analyses were reduced and analyzed using NCSS 97 software using regression analysis and T-Tests.

Setting [5] is: 3 h in vitro radiochemical assay, single 7-day mated CA, read-out: IC50, half-maximal inhibition of JH release.

Take `CC(C)C[C@H](NC(=O)C1(NC(=O)[C@H](Cc2ccccc2)NC(=O)[C@H](CC(N)=O)NC(=O)CCc2ccccc2)CC1)C(N)=O` [AST(b)φ2, Hca-Asn-Phe-Cpa-Leu-NH2] (HELM PEPTIDE1{[O=C(CCc1ccccc1)[*:2]].N.F.[O=C(C1(N[*:1])CC1)[*:2]].L.[am]}$$$$V2.0): the half-life (usually how long it takes for the measured level to halve) at 6 μM came out at 180 h in the series with brain peptidases and 20.2 h in the series on hemolymph peptidases. Moreover, the figures for the “longer half-life than the native neuropeptide Dip-AST5” value in “in vitro [1]” and in the series “in vitro [3]” were 600 fold and 8 fold, respectively. The “resistance to midgut peptidases” value in the series “in vitro [1]” is “completely resistant”. Also, in the series “in vitro [1]” (tissue homogenate), the “Half-life, Midgut” value is reported as “∞”. For the same compound, the IC50 – broadly, the concentration at which inhibition is half-maximal – in series [2] (setting [5]) came out at 1550 nM. The “bioactivity (inhibition of JH biosynthesis)” value in series [2] was “significant biological activity”. Also, the “resistance to degradation by enzymes” value in the series “in vitro [3]” is listed as “extreme resistance”.
As for `CC(C)C[C@H](NC(=O)CNC(=O)C1(NC(=O)[C@H](CC(N)=O)NC(=O)[C@H](Cc2ccc(O)cc2)NC(=O)[C@@H]2CCCN2C(=O)[C@H](CCCNC(=N)N)NC(=O)[C@H](C)N)Cc2ccccc2C1)C(N)=O` [analog 396-1, Ala-Arg-Pro-Tyr-Asn-Aic-Gly-Leu-NH2] (HELM PEPTIDE1{A.R.P.Y.N.[O=C(C1(N[*:1])Cc2ccccc2C1)[*:2]].G.L.[am]}$$$$V2.0; N-terminus assumed), the half-life worked out at 0.287 h in the series on brain peptidases and 0.377 h in the series on midgut peptidases. The “resistance to cleavage by membrane-bound enzymes” value in “in vitro [1]” was “little resistance”. Moreover, the IC50 in series [2] (read-out: IC50) was 2.12 nM. In series [2], the “bioactivity (inhibition of JH biosynthesis)” value is given as “significant bioactivity”.
Regarding `CC(C)C[C@H](NC(=O)C1(NC(=O)[C@H](Cc2ccccc2)NC(=O)[C@H](CC(N)=O)NC(=O)[C@H](Cc2ccc(O)cc2)NC(=O)[C@@H]2CCCN2C(=O)[C@H](CCCNC(=N)N)NC(=O)[C@H](C)N)CC1)C(N)=O` [analog 397-2, Ala-Arg-Pro-Tyr-Asn-Phe-Cpa-Leu-NH2] (HELM PEPTIDE1{A.R.P.Y.N.F.[O=C(C1(N[*:1])CC1)[*:2]].L.[am]}$$$$V2.0; N-terminus assumed), the half-life at 6 μM was found to be 1.01 h with brain peptidases and 0.347 h with midgut peptidases (Diploptera punctata). In addition, the “resistance to cleavage by membrane-bound enzymes” value in the series “in vitro [1]” is listed as “little resistance”. Besides, the half-maximal inhibitory concentration (IC50) in series [2] (setting [5]) came out at 172 nM. For the same compound, the “bioactivity (inhibition of JH biosynthesis)” value in series [2] is listed as “significant bioactivity”.
With `CC(C)C[C@H](NC(=O)CNC(=O)[C@H](Cc1ccccc1)NC(=O)[C@H](CC(N)=O)NC(=O)[C@H](Cc1ccc(O)cc1)NC(=O)CC1c2ccccc2-c2ccccc21)C(N)=O` [analog 525] (HELM PEPTIDE1{[O=C(CC1c2ccccc2-c2ccccc21)[*:2]].Y.N.F.G.L.[am]}$$$$V2.0), the “release rate through the cuticle” value in series [4] (0.5 nmol applied to cuticle, rate stabilized after six hours) was “about 1.5 pmol/h”. The “penetration of the cuticle” value in series [4] (cockroach cuticle, result in words) is on record as “penetrated the cuticle effectively”.
In the case of “DRLYSFGL-NH2 [Dip-AST5, reference compound]”, the IC50 in series [2] (setting [5]) is 3.12 nM; in series [2] (read-out: IC50), 3.1 nM. This compound gave a half-life at 6 μM in the series “in vitro [3]” (female, Diploptera punctata) of 2.55 h.
In the case of “carboranyl propanoic acid-Ser-Phe-Gly-Leu-NH2 ({carboranyl propanoic acid}-SFGL-NH2)”, the EC50 in series [2] (in another assay, read-out: activity (ED50)) is 0.644 nM.
